In PMC12366361, “Biochemical properties of glycerol kinase from the hypersaline-adapted archaeon Haloferax volcanii” (Applied and Environmental Microbiology, 2025):
Values belong to the molecule of their own block, whether it stands above or below them.

Experiments:
[1] = biological target: T1, glycerol kinase (GK, His-GK) (Haloferax volcanii, UniProt D4GYI5); assay: coupled enzyme kinetics of purified His-GK (Hill fit, n = […]); supported by DSF shift ([…] to […]°C) and SEC dimer-to-tetramer shift; assay type: biochemical
T1 construct: gene glpK; N-terminal His-tagged GK (His-GK)
T1 sequence (D4GYI5 1-510): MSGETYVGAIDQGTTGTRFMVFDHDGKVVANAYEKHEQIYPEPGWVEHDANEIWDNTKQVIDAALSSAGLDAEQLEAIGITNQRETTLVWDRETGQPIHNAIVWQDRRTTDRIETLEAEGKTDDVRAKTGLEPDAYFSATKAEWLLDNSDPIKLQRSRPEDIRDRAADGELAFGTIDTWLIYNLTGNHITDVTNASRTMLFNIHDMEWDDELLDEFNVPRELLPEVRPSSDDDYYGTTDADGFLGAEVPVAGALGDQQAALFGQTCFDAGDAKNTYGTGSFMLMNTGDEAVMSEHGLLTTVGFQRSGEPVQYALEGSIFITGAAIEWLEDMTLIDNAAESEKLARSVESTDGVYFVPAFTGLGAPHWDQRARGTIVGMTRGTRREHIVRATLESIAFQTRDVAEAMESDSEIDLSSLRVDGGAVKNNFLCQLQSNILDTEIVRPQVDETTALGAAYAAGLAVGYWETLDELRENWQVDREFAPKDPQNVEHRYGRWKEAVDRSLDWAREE

[2] = biological target: T1, glycerol kinase (GK, His-GK); assay: coupled enzyme kinetics of purified His-GK (Hill fit, n = […]); further DSF stabilization together with glycerol ([…]°C); assay type: biochemical
[3] = biological target: the molecule itself; assay: SEC; Superdex 200 Increase 10/300 GL, 50 mM HEPES pH 7.5, 2 M NaCl, 1 mM DTT, without glycerol; 0.3 mL/min; Ni2+-NTA-purified His-GK dialysed against the same buffer; mass from Kav against standards
[4] = biological target: the molecule itself; assay: SEC; Superdex 200 Increase 10/300 GL, 50 mM HEPES pH 7.5, 2 M NaCl, 1 mM DTT, with 10% (vol/vol) glycerol; 0.3 mL/min; Ni2+-NTA-purified His-GK dialysed against the same buffer; the isolated tetramer was also kept overnight at 4°C and run again; mass from Kav against standards

Kd [1]: 1.44 ± 0.16 mM
Molecule: OCC(O)CO [glycerol]

Molecule: Nc1ncnc2c1ncn2[C@@H]1O[C@H](COP(=O)(O)OP(=O)(O)OP(=O)(O)O)[C@@H](O)[C@H]1O [ATP]
Kd [2]: 1.6 ± 0.08 mM

B1: Haloferax volcanii glycerol kinase fused to an N-terminal polyhistidine tag (His-GK) (enzyme, UniProt D4GYI5 1-510, looked up)
chain: T1 sequence (D4GYI5 1-510)
notes: calculated His-GK monomer 56.7 kDa; Found by SEC as a homodimer (no glycerol) or as a homodimer plus a homotetramer (10% glycerol); also called GlpK; H. volcanii GK; source: H. volcanii H1207-pJAM4351 grown in GlyMM, purified (Ni2+-NTA resin, then SEC); not shown: His6, N-terminal, kept
stoichiometry N [3]: 2
stoichiometry N [4]: 4
